# Key:
# [1] = test system: NIH3T3 cells; assay: Survival rate after ultraviolet-induced apoptosis (SRB), NIH3T3; type: cell-based, mouse; details: 6 J/cm2 ultraviolet rays, 50 µM or 100 µM peptide, 72 hours, FIG. 6A
# Experimental: (§1) In this example, the aim was to confirm the effect of the peptide according to an example on the inhibition of apoptosis or cell recovery of skin cells induced by ultraviolet rays, by evaluating the change in survival rate of skin cells whose apoptosis was induced by ultraviolet irradiation.
# (§2) Specifically, NIH3T3 cells or HaCaT cells were seeded in a 96-well plate at a density of 1×10^4 cells/well and cultured for 24 hours. The cells were then washed once with serum-free DMEM media, the culture medium was replaced with serum-free DMEM media, and 50 µM or 100 µM of the peptide consisting of the amino acid sequence of SEQ ID NO: 1 was dispensed to the culture medium. The culture medium dispensed with the peptide was cultured in a CO2 incubator at 37° C. for 1 hour, transferred to an e-tube, mixed with 100 ul of PBS, and dispensed into a well plate. Afterwards, using a UV irradiator (VILBER LOURMAT, France), 6 J/cm2 ultraviolet rays were irradiated to NIH3T3 cells, and 15 m J/cm2 ultraviolet rays were irradiated to HaCaT cells. The PBS in the well plate was then removed, 900 μL of the culture medium in which the peptides were dispensed was added, and the plate was cultured in a CO2 incubator at 37° C. for 72 hours. […] The dried culture was then dissolved in 20 mM Tris buffer solution and the absorbance at 560 nm was measured using a microplate reader (Molecular Devices, USA). […]
# [2] = test system: fibronectin; assay: Expression of fibronectin in NIH3T3 cells (RT-PCR); type: cell-based, mouse; details: 50 µM or 100 µM peptide, 24 hours, FIG. 2, FIG. 3B
# Experimental: (§3) In this example, the aim was to confirm the effect of the peptide according to an example on improving endogenous skin aging, including improvement of wrinkles and enhancement of elasticity, etc., by evaluating the expression levels of collagen type 1 (Col1a1), fibronectin, or elastin, which are known components of the dermis.
# (§4) Specifically, NIH3T3 cells were seeded in a 6-well plate at a density of 3×10^5 cells/well and cultured for 24 hours. The cells were then washed once with serum-free DMEM media, and the culture medium was replaced with serum-free DMEM media. Thereafter, 50 µM or 100 µM of the peptide consisting of the amino acid sequence of SEQ ID NO: 1 was dispensed into the medium, and cultured in a CO2 incubator at 37° C. for 24 hours. The culture was then washed twice with PBS, and RNA was isolated from the culture using easy blue (iNtRON, Korea). Using an RT kit (Enzynomics, Korea), 1 μg of the isolated RNA was reverse transcribed to synthesize the respective cDNA. Polymerase chain reaction (PCR) was then performed using the cDNAs and primers Col1a1, fibronectin, and elastin. Meanwhile, the untreated group was used as the control group, and the group to which TGF-β1 was added (TGF-β1) was used as the positive control group, the nucleotide sequences of the primers used in this example are shown in Table 2 below.
# [3] = test system: collagen type 1 (Col1a1); assay: Expression of Col1a1 in NIH3T3 cells (RT-PCR); type: cell-based, mouse; details: 50 µM or 100 µM peptide, 24 hours, FIG. 2, FIG. 3A
# Experimental: as §3, §4
# [4] = test system: HaCaT cells; assay: Proliferation of skin cells (SRB staining), HaCaT; type: cell-based, human; details: 50 µM or 100 µM peptide, 72 hours, serum-free DMEM, FIG. 1B
# Experimental: (§5) In this example, the aim was to confirm the effect of a peptide according to an example on proliferation of skin cells, by evaluating changes in survival rate of NIH3T3 cells, which are mouse fibroblasts, or HaCaT cells, which are human keratinocytes.
# (§6) Specifically, NIH3T3 cells or HaCaT cells were seeded in a 96-well plate at a density of 5×10^3 cells/well and cultured for 24 hours. The cells were then washed once with serum-free DMEM media, and the culture medium was replaced with serum-free DMEM media. Then, 50 µM or 100 µM of the peptide consisting of the amino acid sequence of SEQ ID NO: 1 was dispensed into the medium, and cultured in a CO2 incubator at 37° C. for 72 hours. The culture was then washed twice with PBS and treated with 4% paraformaldehyde (PFA) solution for 15 minutes to fix the cultured cells. The culture was then washed twice with distilled water, treated with SRB solution for 1 hour to stain the cells, washed with 1% acetic acid solution, and dried. The dried culture was then dissolved in 20 mM Tris buffer solution and the absorbance at 560 nm was measured using a microplate reader (Molecular Devices, USA). In this example, the untreated group was used as the control group, and the group to which insulin-like growth factor was added (IGF) was used as the positive control group.
# [5] = test system: HaCaT cells; assay: Reactive oxygen species level after ultraviolet irradiation (DCF-DA, FACS), HaCaT; type: cell-based, human; details: 15 m J/cm2 ultraviolet rays, 50 µM or 100 µM peptide, 24 hours, FIG. 7B
# Experimental: (§7) In this example, the aim was to confirm the effect of the peptide according to an embodiment on the antioxidant effect of skin cells induced by ultraviolet rays, by evaluating the level of reactive oxygen species in skin cells increased by ultraviolet irradiation.
# as §2, with “6-well” for “96-well”, “5×10^5” for “1×10^4”, “24” for “72”, “After washing” for “The dried culture was then dissolved in 20 mM Tris buffer solution and”, “centrifuged cells with PBS, FL1 fluorescence values were” for “absorbance at 560 nm was”, “through flow cytometry (FACS, BD,” for “using a microplate reader (Molecular Devices,”
# [6] = test system: sirtuin-1 (SIRT-1); assay: Expression of SIRT-1 in HaCaT cells (RT-PCR); type: cell-based, human; details: 50 µM or 100 µM peptide, 24 hours, FIG. 4, FIG. 5A
# Experimental: (§8) In this example, the aim was to confirm the effect of the peptides according to an example on skin barrier defense, by evaluating the expression levels of sirtuin-1 (SIRT-1) or aquaporin-3 (AQP3).
# (§9) Specifically, HaCaT cells were seeded in a 6-well plate at a density of 3×10^5 cells/well and cultured for 24 hours. The cells were then washed once with serum-free DMEM media, and the culture medium was replaced with serum-free DMEM media. Thereafter, 50 µM or 100 µM of the peptide consisting of the amino acid sequence of SEQ ID NO: 1 was dispensed into the medium, and cultured in a CO2 incubator at 37° C. for 24 hours. The culture was then washed twice with PBS, and RNA was isolated from the culture using easy blue (iNtRON, Korea). Using the RT kit (Enzynomics, Korea), 1 μg of the isolated RNA was reverse transcribed to synthesize the respective cDNA. Polymerase chain reaction was then performed using the cDNAs and primers sirtuin-1 and aquaporin-3. Meanwhile, the untreated group was used as the control group, and the group to which EGF was added (EGF) was used as the positive control group, the nucleotide sequences of the primers used in this example are shown in Table 3 below.
# [7] = test system: elastin; assay: Expression of elastin in NIH3T3 cells (RT-PCR); type: cell-based, mouse; details: 50 µM or 100 µM peptide, 24 hours, FIG. 2, FIG. 3C
# Experimental: as §3, §4
# [8] = test system: NIH3T3 cells; assay: Proliferation of skin cells (SRB staining), NIH3T3; type: cell-based, mouse; details: 50 µM or 100 µM peptide, 72 hours, serum-free DMEM, FIG. 1A
# Experimental: as §5, §6
# [9] = test system: HaCaT cells; assay: Survival rate after ultraviolet-induced apoptosis (SRB), HaCaT; type: cell-based, human; details: 15 m J/cm2 ultraviolet rays, 50 µM or 100 µM peptide, 72 hours, FIG. 6B
# Experimental: as §1, §2
# [10] = test system: NIH3T3 cells; assay: Reactive oxygen species level after ultraviolet irradiation (DCF-DA, FACS), NIH3T3; type: cell-based, mouse; details: 6 J/cm2 ultraviolet rays, 50 µM or 100 µM peptide, 24 hours, FIG. 7A
# Experimental: as §7
# as §2, with “6-well” for “96-well”, “5×10^5” for “1×10^4”, “24” for “72”, “After washing” for “The dried culture was then dissolved in 20 mM Tris buffer solution and”, “centrifuged cells with PBS, FL1 fluorescence values were” for “absorbance at 560 nm was”, “through flow cytometry (FACS, BD,” for “using a microplate reader (Molecular Devices,”
# [11] = test system: aquaporin-3 (AQP3); assay: Expression of AQP3 in HaCaT cells (RT-PCR); type: cell-based, human; details: 50 µM or 100 µM peptide, 24 hours, FIG. 4, FIG. 5B
# Experimental: as §8, §9
sequence,measurement,setting,value
EALKYWYEN (Peptide 1) [SEQ ID NO: 1],cell survival rate of fibroblasts reduced by ultraviolet irradiation,[1],restored
same,expression of fibronectin,[2],increased
same,expression of Col1a1,[3],increased
same,proliferation of keratinocytes,[4],promoted
same,level of reactive oxygen species in keratinocytes increased by ultraviolet irradiation,[5],reduced
same,expression of SIRT-1,[6],increased
same,expression of elastin,[7],increased
same,proliferation of fibroblasts,[8],promoted
same,cell survival rate of keratinocytes reduced by ultraviolet irradiation,[9],restored
same,level of reactive oxygen species in fibroblasts increased by ultraviolet irradiation,[10],reduced
same,expression of AQP3,[11],increased

# Source: patent publication US20250339359A1, “PEPTIDE HAVING ACTIVITY OF IMPROVING STATE OF SKIN, AND USE THEREOF” (CAREGEN CO., LTD., priority 2021, published 2025)
